# Measurements published in patent US9173838B2, “Reverse micelle compositions for delivery of metal cations comprising a diglyceride and a phytosterol and method of preparation” (MEDESIS PHARMA SA, priority 2004, dated 2015).
# Legend:
# [1] = tested on: fructose rats (non insulin dependent diabetes model); experiment: Antidiabetic activity on fructose rats; assay type: in vivo; settings: for glycemia D 0: D0 before start of treatment (baseline); for glycemia D3: day 3 of daily treatment; for glycemia D7: day 7 of daily treatment; for glycemia D21: day 21 of daily treatment
# Source text: 1—Antidiabetic Activity on Fructose Rats
# The model of the fructose rats is a non insulin dependent diabetes (NIDD) similar to the observed human type 2 diabetes.
# In this study, the NP 01 product contains reverse micelles based on vanadium, prepared according to example 2. Its therapeutic activity is compared with two reference drugs: Metformin and Rosiglitazone.
# At D −21, after the period of stalling, rats are weighed and a blood sampling is made to determine the basal values of the biochemical parameters.
# The rats are distributed randomly in groups of 10 rats. The drink water is then replaced by a solution of fructose 10% in distilled water. This solution is provided ad libitum for 21 days. They receive then again normal water for the following 21 days of the treatment.
# At D 0, animals are weighed and a blood sampling is carried out.
# The treatment then starts for a 21-day duration, with a daily administration: • Control group: 1 ml/kg of normal water per os • NP 01group: 2 ml/kg by the rectal route • Metformin group: 50 mg/kg of Metformin per os. • Rosiglitazone group: 5 mg/kg of Rosiglitazone per os
# At D 21, blood sample and end of the treatment.
# [2] = tested on: adryamycin-induced inflammation/oedema in male Wistar rat leg; experiment: SOD like activity on rats: test with adryamycin (oedema by plethysmography); assay type: in vivo
# Description: 2—<<SOD Like>> Activity on Rats: Test with Adryamycin
# The test with adryamycin is a specific test to highlight free anti-radicals activity of a substance. The product contains reverse micelles based on manganese prepared according to example 3.
# One hour after injection in the leg of a male Wistar rat of 0.2 ml of a solution of adryamycin, a temporary inflammation appears for approximately 12 hours. A second inflammatory phase begins on the 3rd day and lasts for 5 days. The vascular hyperpermeability and the oedema which results therefrom, with a deterioration of the cells of endothelial membranes, are caused by the release of free radicals. […] The oedema is measured by plethysmography (expressed by % of pow volume).
# 3 batches of 10 rats are made up: • negative batch controls: olive oil administration (2 ml/kg) by rectal route • positive batch controls: administration of 100 mg/kg of diosmine • batch treated by NP 02 (manufactured according to example 3): 2 ml/kg by rectal route Results (SD Stands for Standard Deviation)—FIG. 3
# [3] = Strontium amount in bone and plasma of growing rats (atomic absorption); assay type: in vivo, Wistar female rats; settings: end of 6 weeks treatment
# Description: (§1) The animals are Wistar female rats of 200 g (average).
# (§2) Homogeneous batches of 10 rats are made up starting from their weight.
# (§3) The treatment is administered once per day during 6 weeks.
# (§4) Administered batches and products: • control batch (administration of olive oil by rectal route) • SrCl2 batch (SrCl2 and strontium ranelate are known active ingredients for the osseous growth and treatment of osteoporosis). 68.2 mg of metal Sr/kg/day are administered by rectal route. • NP 05 A batch: product prepared according to example 4 of the invention, with 12.5 mg metal Sr/kg/day.
# (§5) NP 05 B batch: product prepared according to example 5 of the invention, with 1.21 mg metal Sr/kg/day.
# (§6) NP 05 C batch: product prepared according to example 6 of the invention, with 0.12 mg metal Sr/kg/day.
# (§7) Parameters analyzed at the end of the treatment: • animals weight • measurement of the diameter of the rats femoral head after euthanasia and sampling (slide caliper under binocular magnifying glass) • Strontium amount in bone (by atomic absorption). • Strontium amount in plasma (by atomic absorption). Results
# growing rats = experiment: Stimulation of the osseous growth on growing rats (femoral diameter); assay type: in vivo, Wistar female rats; settings: once per day during 6 weeks, rectal route
# Description: 3—Stimulation of the Osseous Growth on Growing Rats
# The objective of this study is the assessment of a stimulation activity of the osseous growth in growing rats.
# The product contains reverse micelles based on strontium prepared according to example 4.
# as §1, §2, §3, §4, §5, §6, §7
structure (smiles),measurement,setting,value
CN(C)C(=N)N=C(N)N [Metformin],glycemia D 0,[1],10.64 mmol/L
same,glycemia D3,[1],10.63 mmol/L
same,glycemia D7,[1],9.68 mmol/L
same,glycemia D21,[1],8.91 mmol/L
"COc1ccc(-c2cc(=O)c3c(O)cc(O[C@@H]4O[C@H](CO[C@@H]5O[C@@H](C)[C@H](O)[C@@H](O)[C@H]5O)[C@@H](O)[C@H](O)[C@H]4O)cc3o2)cc1O [Positive control, diosmine]",free anti-radicals activity (in words),[2],free anti-radical activity similar to Manganese superoxydismutase
same,% of pow volume D1,"[2]; Wistar rats, D1",106.7%
same,% of pow volume D2,"[2]; Wistar rats, D2",120.8%
same,% of pow volume D3,"[2]; Wistar rats, D3",152.2%
same,% of pow volume D4,"[2]; Wistar rats, D4",163%
same,% of pow volume D5,"[2]; Wistar rats, D5",177.6%
same,% of pow volume D6,"[2]; Wistar rats, D6",177.5%
same,% of pow volume D7,"[2]; Wistar rats, D7",168.2%
same,% of pow volume D8,"[2]; Wistar rats, D8",163.5%
CN(CCOc1ccc(CC2SC(=O)NC2=O)cc1)c1ccccn1 (stereo not shown) [Rosiglitazone],glycemia D 0,[1],10.38 mmol/L
same,glycemia D3,[1],10.47 mmol/L
same,glycemia D7,[1],9.37 mmol/L
same,glycemia D21,[1],9.13 mmol/L
[Cl-].[Cl-].[Sr+2] [SrCl2],Sr in bone,[3],1508.83 µg/g
same,Femoral diameter,growing rats,3.93 mm
